Data on four molecules can be found in publication PMC5077990, “P53 activation inhibits all types of hematopoietic progenitors and all stages of megakaryopoiesis” (Oncotarget, 2016).

On the set-up of data set [1]: method as in PMID 23084521, PMID 24309210. The note with it: clinical and preclinical data in rats and monkeys; cited from earlier work.
Data set [2] has as its system BFU-E (Burst Forming Unit-Erythroid) progenitors from CD34+ cells. In words: Colony assay in methylcellulose, BFU-E. Type of data set: cell-based, human. The note with it: CD34+ cells seeded in methylcellulose in the presence of compound; compared to untreated control. The procedure:
(§1) CD34^+cells were obtained from leukapheresis samples after mobilization of donors after informed consent in agreement with our Institute Ethic Committee (Assistance Publique des Hôpitaux de Paris) and in accordance with the Declaration of Helsinki. CD34^+cells were isolated by a positive selection using an immunomagnetic cell sorting system (AutoMacs; Miltenyi Biotec, Bergisch Gladbach, Germany). 500 to 1000 normal CD34^+cells were plated either in 1% methylcellulose assay (StemCells technologies, Vancouver, Canada) to quantify erythroid (BFU-E) and granulo-monocytic (CFU-GM) progenitors or in serum-free fibrin clot assay for quantification of MK progenitors (CFU-MK) in the absence or presence of various concentration of SAR405838 or MI-219. Cultures in methylcellulose were stimulated by addition of human recombinant growth factors: G-CSF (20 ng/mL), IL-3 (10 ng/mL) SCF (25 ng/mL, Biovitrum AB, Stockholm, Sweden), IL-6 (10 ng/mL), FLT3 (10 ng/mL) and human EPO (1 U/mL). Cultures in fibrin clot were stimulated with 10 ng/mL TPO (Kirin Brewery, Tokyo, Japan) and 25 ng/mL SCF. BFU-E and CFU-GM colonies were enumerated at day 14 of culture. CFU-MK colonies were enumerated at day 12 after labeling by an indirect immuno-alkaline phosphatase staining technique using an anti-CD41a monoclonal antibody (MoAb; Becton Dickinson, le Pont de Claix, France; clone HIP8), as previously described.

The subject of data set [3] is CFU-GM (Colony Forming Unit-Granulocyte Macrophage) progenitors from CD34+ cells. In words: Colony assay in methylcellulose, CFU-GM. Format: cell-based, human. The note with it: CD34+ cells seeded in methylcellulose in the presence of compound; compared to untreated control. The procedure:
as §1, with “BFU-E and CFU-GM colonies were enumerated at day 14 of culture.” left out

Data set [4] has as its system CFU-MK (Colony Forming Unit-Megakaryocyte) progenitors from CD34+ cells. In words: Colony assay in fibrin clot, CFU-MK. Type of data set: cell-based, human. To be noted: CD34+ cells seeded in fibrin clot in the presence of compound; compared to untreated control. How it is done:
as §1, with “CFU-MK colonies were enumerated at day 12 after labeling by an indirect immuno-alkaline phosphatase staining technique using an anti-CD41a monoclonal antibody (MoAb; Becton Dickinson, le Pont de Claix, France; clone HIP8), as previously described.” left out

The test system of data set [5] is Day 6 megakaryoblasts (ploidization). In words: MK ploidy by flow cytometry (CD41/CD42/vital Hoechst staining). Type of data set: cell-based, human. The note with it: day 6 megakaryoblasts treated 72 hours, analysed day 9; SAR405838 at 1 μM; untreated control 4.4 N. How it is done:
First, we investigated if MDM2 inhibitors affect MK ploidization. SAR405838 induced a significant reduction in the mean ploidy (3.0 N at the dose of 1 μM versus 4.4 N for untreated control or for MI-219 treatment) (Supplementary Figure S1). page 1: P53 activation inhibits all types of hematopoietic progenitors and all stages of megakaryopoiesis SUPPLEMENTARY FIGURE Supplementary Figure S1: Effect of SAR405838 on polyploidization. Day 6 megakaryoblasts were treated for 72 hours with various doses of MI-219 or SAR405838. At day 9, ploidy was analyzed by flow cytometry using a CD41/CD42/vital Hoechst staining. N represents the mean ploidy. As shown, SAR405838 induced a significant reduction in the mean ploidy (3.0N at the dose of 1μM versus 4.4N for control or for MI-219 treatment). The Figure illustrates a representative experiment in triplicate. Two other experiments in triplicate gave similar results. […]

Data set [6] concerns p53 pathway in megakaryocytes (MKs). In words: p53 pathway proteins and transcripts in MKs (western-blot, qRT-PCR). Type of data set: cell-based, human. To be noted: day 7-MKs (legend: day 10-MK), 5 μM for 24 or 48 hours. How it is done:
We also explored the effects of p53 stabilization at a later stage of megakaryocytic differentiation. […] Day 7-MKs were treated with 5 μM Nutlin 3a for 24 or 48 hours, which led to an increase in p53, p21, BAX, BCL2 and BCL-XL levels, confirming a functional p53 activity (Figure 6A). […] Similar results were found with day 6-megakaryoblasts treated with two doses of SAR405838 for 72 hours (Figure 6D/6E) without any major effect on the percentage of CD41^+ cells (Figure 6F). […] As shown in Figure 6D/6E, at the dose of 0.5 μM the SAR405838 induced a 50% decreased in the number of viable cells while the apoptotic cells reached 50% of the total cells. We checked if the effect of SAR405838 on MKs could be reverted by the addition of high TPO doses. CD34^+ progenitors were cultured in serum-free medium supplemented with SCF and low dose of TPO (1 ng/mL) for 6 days. Day 6-megakaryoblasts were then treated with 1.5 μM of SAR405838 for 48 hours and various doses of TPO.
In parallel, the expression of P53, BAK, BCL2L1, NOXA, PUMA, BAX, P21 and P53 were quantified by qRT-PCR related to HPRT. C. […] (n=3). […]
PCRs were carried out in the ABI Prism GeneAmp 5700 (Perkin-Elmer) using the Power SYBR-Green PCR Master Mix (ABI) containing the specific primers. The expression levels of all genes were calculated relatively to HPRT or to PPIA housekeeping gene.
Proteins were quantified by Image J software.

On to `CCOc1cc(C(C)(C)C)ccc1C1=N[C@@](C)(c2ccc(Cl)cc2)[C@@](C)(c2ccc(Cl)cc2)N1C(=O)N1CCN(CCCS(C)(=O)=O)CC1` [RG7112], for which the hematological adverse effect entry in data set [1] is listed as “major thrombocytopenia”. On to `CC(C)(C)C[C@H]1N[C@@H](C(=O)NCC[C@H](O)CO)[C@H](c2cccc(Cl)c2)[C@@]12C(=O)Nc1cc(Cl)c(F)cc12.Cl` [MI-219], for which the “dose inducing a 50% reduction of BFU-E numbers” value in data set [2] is given as “significant less potent activity compared to SAR405838”. Further, the “dose inducing a 50% reduction of CFU-GM numbers” value in data set [3] is recorded as “significant less potent activity compared to SAR405838”. The “dose inducing a 50% reduction of CFU-MK numbers” value in data set [4] is on record as “significant less potent activity compared to SAR405838”. Moreover, the mean ploidy in data set [5] was 4.4 N. With `COc1ccc(C2=N[C@@H](c3ccc(Cl)cc3)[C@@H](c3ccc(Cl)cc3)N2C(=O)N2CCNC(=O)C2)c(OC(C)C)c1` [Nutlin], the hematological adverse effect entry in data set [1] is given as “major thrombocytopenia”. As for `COc1ccc(C2=N[C@@H](c3ccc(Cl)cc3)[C@@H](c3ccc(Cl)cc3)N2C(=O)N2CCNC(=O)C2)c(OC(C)C)c1` [Nutlin 3a], in data set [6], the “p53, p21, BAX, BCL2 and BCL-XL levels (western-blot)” value is listed as “increase”.
